The text below walks through data of patent US12655169B2, “Arabinose and preparation and use thereof” (THOMSON BIOTECH (XIAMEN) PTE. LTD., priority 2022, dated 2026).

Common to all, as to assay type: physicochemical
Data set [1] is described as follows: Flowability test (particle and powder characteristic analyzer, FT-102D). The text has this: (§1) Example 4. Particle Size Parameters and Powder Characteristics (Quantity Distribution) of L-Arabinose
Example 13. Performance Test Results for the Granules of the Present Disclosure

Data set [2] is described as follows: Granularity distribution of sample (standard sieve). The following applies: for Granularity distribution of sample (standard sieve) 20-80 mesh / Granularity distribution of sample (standard sieve) <80 mesh / Granularity distribution of sample (standard sieve) >20 mesh: Example 8 samples, seed crystal specification and fed-batch time varied. How it is done: 1 kg of L-arabinose starting material was dissolved in 1.2 kg of purified water at 60° C. After the solution was completely clear, 1 g of activated carbon ([…] of the L-arabinose) was added. The mixture was incubated at 60° C. for 30 min and then subjected to suction filtration under vacuum successively through 25 μm and 0.45 μm filter membranes to remove the activated carbon, and a clear filtered sugar liquid (about 1800 mL in volume) was obtained. About 800 mL of the clear filtered sugar liquid was added to a three-necked flask, and stirred and evaporated under reduced pressure in a water bath set at a temperature of 62° C. until the sugar degree reached 58-60% Brix. A proper amount of L-arabinose was added as seed crystals (as shown in Table 8-1 below, seed crystal with different specifications was selected: 40-60 mesh, 16.5 g; 60-80 mesh, 6 g; 80-100 mesh, 1.5 g). The mixture was stirred (double-layered type of stirring, with two-half-crescent type for the lower layer and three-bladed propeller type for the upper layer) at a rate of 90-110 rpm until the seed crystal was completely dispersed. Then the sugar liquid was added at a rate of 50-100 mL/h in a fed-batch manner for a time period of 12/18 h. After the fed-batch addition was completed, the concentrating was continued for 1-2 h. It was about 14 h from the time the seed crystal was added to the time of discharging.
According to the results shown in Table 8-1, the specific surface area of the seed crystal of 80-100 mesh is relatively […] compared with that of the seed crystal of other specifications (as shown in Table 8-2), but the particle size distribution of the sample obtained by experiment is relatively uniform: the proportion of 20-80 mesh is more than 89.7%, and the maximum proportion is more than 90%, which fully complies with the requirements of the existing pharmacopoeia (Chinese pharmacopoeia (2020)) for granules: granules cannot pass through a No. 1 sieve (10 mesh, 2000 μm) and the total quantity of granules which can pass through a No. 5 sieve (80 mesh, pore size of […]) should not exceed 15%.

The nature of data set [3]: Particle size parameter test (BT-2900 image particle size analysis system). The following applies: quantity distribution, image particle size analysis.
Source text: as §1

The mark [4] stands for this setting: post-centrifugation sampling-manual material spreading and drying oven drying.
[5] abbreviates: screw feeding-back-mixing bed drying.
[6] abbreviates: listed as Example 10 sample of batch 2ª.
Where [7] appears, read: listed as Example 10 sample of batch 1ª.

Like-named read-outs stand apart in the source and are kept apart here.

In data set [1], `O=C[C@H](O)[C@@H](O)[C@@H](O)CO` [Example 11, L-arabinose] displayed an Angle of repose of 34.29, a Bulk density of 0.5, a Carr flowability index of 102.0 and a Compressibility of 23.1. In addition, in data set [1], the Floodability index came to 75.0, the “Flowability (Hausner ratio)” value was “Acceptable”, the Hausner ratio is on record as 1.3 and the Tap density was found to be 0.65. Besides, the “20-80 mesh proportion of sample” value in data set [2] (setting [4]) was 90.6%. In data set [3], this compound gave an Average particle size of 148.8 μm, a D10 of 164.8 μm, a D50 of 288.1 μm and a D90 of 448.8 μm.

Regarding `O=C[C@H](O)[C@@H](O)[C@@H](O)CO` [Example 3, L-arabinose], in data set [1], the Angle of repose is 38.76, the Bulk density is listed as 0.56, the Carr flowability index came out at 99 and the Compressibility is given as 24.3. In data set [1], the Floodability index is on record as 75.0, the “Flowability (Hausner ratio)” value is “Good”, the Hausner ratio is given as 1.2 and the Tap density is listed as 0.74. In data set [2], the “Granularity distribution of sample (standard sieve) 20-80 mesh” value was 81.6, the “Granularity distribution of sample (standard sieve) <80 mesh” value is on record as 1.5 and the “Granularity distribution of sample (standard sieve) >20 mesh” value is 16.9. In data set [3], this compound gave an Average particle size of 125 μm, a D10 of 43 μm, a D50 of 109 μm and a D90 of 232 μm.

On to `O=C[C@H](O)[C@@H](O)[C@@H](O)CO` [Example 2, L-arabinose], for which, in data set [1], the Angle of repose is reported as 38.95, the Bulk density is 0.6, the Carr flowability index is recorded as 102.5 and the Compressibility amounted to 20.6. For the same compound, in data set [1], the Floodability index was determined as 75.0, the “Flowability (Hausner ratio)” value is on record as “Good”, the Hausner ratio is 1.3 and the Tap density worked out at 0.76. Also, in data set [2], the “Granularity distribution of sample (standard sieve) 20-80 mesh” value was determined as 61, the “Granularity distribution of sample (standard sieve) <80 mesh” value was 1 and the “Granularity distribution of sample (standard sieve) >20 mesh” value is 38. Besides, in data set [3], the Average particle size worked out at 189 μm, the D10 is listed as 82 μm, the D50 is on record as 182 μm and the D90 worked out at 299 μm.

As for `O=C[C@H](O)[C@@H](O)[C@@H](O)CO` [Example 12, L-arabinose], in data set [1], the Angle of repose is given as 39.74, the Bulk density was 0.48, the Carr flowability index stood at 99 and the Compressibility stood at 24.4. In data set [1], the Floodability index stood at 75.0, the “Flowability (Hausner ratio)” value is “Good”, the Hausner ratio is 1.3 and the Tap density is given as 0.64. For the same compound, in data set [2] (setting [4]), the “20-80 mesh proportion of sample” value is reported as 93.57%. In data set [3], the Average particle size amounted to 185.5 μm, the D10 came to 175.1 μm, the D50 is 305.2 μm and the D90 is listed as 481.8 μm.

In data set [2], `O[C@@H]1[C@@H](O)[C@@H](O)CO[C@H]1O` [No. 5] returned a Granularity distribution of sample (standard sieve) 20-80 mesh of 89.7%, a Granularity distribution of sample (standard sieve) <80 mesh of 3% and a Granularity distribution of sample (standard sieve) >20 mesh of 7.3%.

For the compound `O=C[C@H](O)[C@@H](O)[C@@H](O)CO` [Example 10 batch 2, L-arabinose], in data set [1], the Angle of repose was 30.95, the Bulk density was determined as 0.68, the Carr flowability index is reported as 102.5 and the Compressibility is 15.9. In addition, in data set [1], the Floodability index came out at 75.0, the “Flowability (Hausner ratio)” value is listed as “Good”, the Hausner ratio turned out to be 1.2 and the Tap density is reported as 0.81. For the same compound, in data set [2] (setting [4]), the “20-80 mesh proportion of sample” value worked out at 96.4%. Further, the “20-80 mesh proportion of sample” value in data set [2] (setting [5]) was determined as 79.8%. In addition, in data set [3] (setting [6]), the Average particle size is reported as 129.2 μm, the D10 was determined as 41.88 μm, the D50 amounted to 116.4 μm and the D90 came out at 237.9 μm.

In data set [3], `O=C[C@H](O)[C@@H](O)[C@@H](O)CO` [Example 10 Sample of batch 1^b, L-arabinose] showed an Average particle size of 182 μm, a D10 of 78 μm, a D50 of 174 μm and a D90 of 296 μm.

In data set [1], `O[C@@H]1[C@@H](O)[C@@H](O)CO[C@H]1O` [Commercial product (T1)] gave a Bulk density of 0.55 g/mL, a Carr flowability index of 79, a Compressibility of 40.2% and a Floodability index of 75. Also, in data set [1], the “Flowability (Hausner ratio)” value is “Very poor”, the Hausner ratio stood at 1.7 and the Tap density stood at 0.93 g/mL. In data set [1] (in ° (unit assumed)), this compound returned an Angle of repose of 51.05. For the same compound, in data set [3], the Average particle size is listed as 75 μm, the D10 was found to be 27 μm, the D50 was found to be 63 μm and the D90 was found to be 137 μm.

In data set [1], `O=C[C@H](O)[C@@H](O)[C@@H](O)CO` [Example 10 batch 1, L-arabinose] registered an Angle of repose of 40.01, a Bulk density of 0.7, a Compressibility of 17.1 and a Floodability index of 75.0. Further, in data set [1], the “Flowability (Hausner ratio)” value is “Good”, the Hausner ratio is 1.2 and the Tap density is recorded as 0.85. Further, the “20-80 mesh proportion of sample” value in data set [2] (setting [4]) was determined as 93.0%. The “20-80 mesh proportion of sample” value in data set [2] (setting [5]) is 66.4%. Moreover, in data set [3] (setting [7]), the Average particle size is on record as 134.5 μm, the D10 is recorded as 48.4 μm, the D50 turned out to be 125.1 μm and the D90 is recorded as 230.6 μm.

In data set [1], `O[C@@H]1[C@@H](O)[C@@H](O)CO[C@H]1O` [Commercial product (Y1)] registered a Bulk density of 0.5 g/mL, a Carr flowability index of 79, a Compressibility of 41.4% and a Floodability index of 75. In data set [1], the “Flowability (Hausner ratio)” value is “Very poor”, the Hausner ratio was found to be 1.7 and the Tap density was 0.85 g/mL. Moreover, the Angle of repose in data set [1] (in ° (unit assumed)) is reported as 51.73. Besides, in data set [3], the Average particle size was found to be 33 μm, the D10 was 11 μm, the D50 turned out to be 30 μm and the D90 came to 63 μm.

With `O=C[C@H](O)[C@@H](O)[C@@H](O)CO` [Example 10 Sample of batch 2^b, L-arabinose], in data set [3], the Average particle size came out at 189 μm, the D10 came to 79 μm, the D50 is 168 μm and the D90 came out at 331 μm.

As to `O=C[C@H](O)[C@@H](O)[C@@H](O)CO` [Example 14, L-arabinose], the results for the “20-80 mesh proportion of sample” value in data set [2] (setting [4]) and in data set [2] (star valve unloading-back-mixing bed drying) were 94.3% and 89%, respectively.
